In data set [1] the test system is T. gondii TgGoatUS4 oocysts. The data set can be described thus: Mouse model of T. gondii oocyst infection, TgGoatUS4. It is filed as in vivo, mice. The method, then:
(§1) Compounds 14a and 14b were tested for efficacy against T. gondii in the oocyst stage following per oral challenge in mice. Mice were infected by oral gavage with ME49 or TgGoatUS4 oocysts. Mice were treated with either 100 mg/kg or 25 mg/kg) of test substance.
(§2) Thus, compounds 14a and 14b were tested for efficacy in a mouse model of T. gondii oocyst infection. The oocyst form of the parasite is excreted by cats and is often the form by which people and other animals become infected. This oocyst infection in mice is very virulent, and fatal. Mice were infected by oral gavage with ME49 or TgGoatUS4 oocysts. Mice were treated with either a high dose (100 mg/kg) or low dose (25 mg/kg) of 14a or 14b 1 mL suspension via oral gavage, or were not treated. […] Treatment with 14a and 14b increased survival by 1 day (Table 6, FIGS. 8 and 9).
(§3) HLA B07 transgenic mice were produced at Pharmexa-Epimmune (San Diego, Calif., USA) and bred at the University of Chicago. […]
(§4) Oocysts were obtained by feeding infected tissues of Swiss Webster mice to cats, sporulated in 2% sulfuric acid on a shaker for one week, and stored at 4° C. until used (Dubey 2010). Oocysts were counted in a disposable hemocytometer and diluted 10-fold from 10^−1 to 10^−7 to reach an end point of ≅1 oocyst. […]

The nature of data set [2]: Hydrolytic stability of acylated derivatives (data not shown). The data set is classed as physicochemical. The method, then:
A cursory study of the effect of capping the phenol of 4 via acylation was undertaken. The acylated derivatives 7 were prepared and tested. […] The intrinsic activity of intact 7a cannot yet be ruled out, and this interesting phenomenon is currently under study.

The test system of the next data set is T. gondii Me-49 oocysts. The data set is described as follows: Mouse model of T. gondii oocyst infection, Me-49. The data set is classed as in vivo, mice. The method, then: as §1, §2, §3, §4

SMILES strings stand for the structures.

From US20130324555A1, “Method of use of pharmaceutical formulations for the treatment of apicomplexan diseases in animals” (priority 2012, published 2013) come the findings set out here.

Regarding `CN(CC(=O)NN)C(=O)Oc1ccc(Cl)cc1C(=O)Nc1ccc(C(F)(F)F)cc1C(F)(F)F.Cl` [Compound 14b, 2-((2,4-bis(trifluoromethyl)phenyl)carbamoyl)-4-chlorophenyl (2-hydrazinyl-2-oxoethyl)(methyl)carbamate hydrochloride], in data set [1] (TgGoatUS4 oocysts, 100 or 25 mg/kg), the increase of survival came out at 1 days. Also, in data set [1] (mouse, in vivo), the “survival of mice infected with T. gondii oocysts, in words” value is “effective at prolonging slightly the survival”. Regarding `O=C(Oc1ccc(Cl)cc1C(=O)Nc1ccc([N+](=O)[O-])cc1Cl)c1ccccc1` [Compound 7a, 4-chloro-2-((2-chloro-4-nitrophenyl)carbamoyl)phenyl benzoate], the stability against hydrolysis result in data set [2] is listed as “hydrolytically labile under certain conditions”. With `CN(CC(=O)NN)C(=O)Oc1ccc(Cl)cc1C(=O)Nc1ccc([N+](=O)[O-])cc1Cl.Cl` [Compound 14a, 4-chloro-2-((2-chloro-4-nitrophenyl)carbamoyl)phenyl (2-hydrazinyl-2-oxoethyl)(methyl)carbamate hydrochloride], the increase of survival in the data set on T. gondii Me-49 oocysts (Me-49 oocysts, 100 or 25 mg/kg) is 1 days. Further, the “survival of mice infected with T. gondii oocysts, in words” value in the data set on T. gondii Me-49 oocysts (mouse, in vivo) was “effective at prolonging slightly the survival”.
